From US11739120B2, “Water soluble salts of lipidated peptides and methods for preparing and using the same” (Bridge Biotherapeutics, Inc., priority 2018, dated 2023)
Converted amounts (≈) assume the structure as drawn. Residues, ends and D or L forms follow the SMILES beside them. *: point of attachment. Palmitoyl = CCCCCCCCCCCCCCCC(=O)*

Key:
[1] = Approximate solubility of Compound I-1-Acid in different solvents (manual dilution, visual observation); type: physicochemical
Experimental: The solubility test was conducted by manual dilution combined with visual observation. As shown below, Compound I-1-Acid has poor solubility (<1 mg/mL) in most organic solvents and water (Table 1).

[2] = Water solubility of Compound I-1-Acid (further investigation); type: physicochemical
[3] = system: inflammatory bowel diseases, multiple sclerosis, and septicemia; settings: shown in U.S. application Ser. No. 15/205,853; cited from earlier work
[4] = Approximate solubility of Compound I-2 (amorphous) at room temperature; type: physicochemical
Experimental: The solubility of Compound I-2 (amorphous) at room temperature was tested using a method similar to those described in Examples 4 and 5. The solubility test results are described in Table 6.

[5] = Kinetic solubility of potassium salt Compound I-2 (further research); type: physicochemical; settings: water; 25° C.
[6] = Solubility of amorphous, Form A and Form E of Compound I-1 in water (shaken at 25° C., HPLC); type: physicochemical; settings: for Final pH: mother liquor; for XRPD pattern (wet): residue of the suspension in water
Experimental: The solubility of amorphous, Form A or E of Compound I-1 in water was further studied. Specifically, about 250 mg Compound I-1 in amorphous, Forms A and E were each suspended in a 2 mL HPLC vial with 0.9 mL of water. Each suspension was then shaken at 25° C. under 1000 rpm. The suspensions were analyzed at 1 h and 24 h. In particular, at either the 1 h or 24 h time point, the slurries were centrifuged and analyzed by HPLC. The pH values of the mother liquors were measured, and the residues were characterized by XRPD.

[7] = Aqueous solubility of Compound I-1 in the presence of excipients; type: physicochemical; settings: 25° C.
Experimental: Specifically, about 50 mg of Compound I-1 was weighed into a 1.5-mL HPLC vial, and 0.2 mL of different media was then added to each vial. The mixtures were shaken at 25° C. under 700 rpm. After 24 hours of shaking, the slurries were centrifuged twice and analyzed. The supernatant was analyzed by HPLC.

[8] = Physical stability of Compound I-1 in meglumine solutions; type: physicochemical; settings: for Appearance: precipitation after (storage time) / Appearance: no precipitation until (storage time): vehicle Meglumine, 25° C.
Experimental: In contrast, an aqueous formulation with a concentration of Compound I-1 of 200 mg/mL, without meglumine, started forming precipitates after storing 1 day at 25° C.

[9] = Stabilities of amorphous Compound I-1 (ICH guideline, XRPD); type: physicochemical; settings: amorphous; 25±2° C./60±5% RH and 40±2° C./75±5% RH; ICH guideline
Experimental: Stabilities of amorphous Compound I-1 were also conducted according to ICH guideline.

[10] = system: DSS induced colitis animal model; assay: DSS induced colitis animal model; type: in vivo; settings: formulations containing Compound I-1
Source text: The compound of Formula I (e.g., Formula I-B or I-C, or any one of Compounds I-1 to I-10) described herein is useful for treating various diseases or disorders discussed herein. […] In addition, it was shown that effective concentration of the acid compounds can be retained in a targeted tissue (e.g., small intestinal tissues, large intestinal tissues, appendix tissues) for a sufficient time. […] Those skilled in the art would expect that the salts of Compound I-1-Acid, such as Compound I-1, be similarly efficacious.

[11] = Aqueous solubility of Compound I-1 in the presence of excipients; type: physicochemical; settings: approximate solubility by visual observation
[12] = Hygroscopicity by Dynamic Vapor Sorption (DVS); type: physicochemical
Experimental: A polymorph screening study on Compound I-1-Acid was also carried out, which identified Form 1. […] About 0.25% weight loss from 25° C. to 120° C. and about 0.42% weight loss from 120° C. to 150° C.
Compound I-2 can have different crystalline forms. Two different polymorphs, Forms A2 and B2 were identified. Form A2 can be prepared as follows. Specifically, the white solid of Compound I-2 obtained above was dissolved in 30 mL THF:water (95:5, v/v). […] The suspension was then allowed to be stirred at room temperature overnight. After which, the solid was filtered, washed with THF:water:MTBE=7.5:1:53 (25 mL*3) to remove excess KOH, and then dried under vacuum at 25° C. overnight to provide Form A2.

[13] = Crystalline stability of Form A2 of Compound I-2 on storage; type: physicochemical; settings: 25° C./92.5% RH, 40° C./75% RH, 60° C.; 25 days
[14] = water, 25° C., time point 1 hour
[15] = water, 25° C., time point 24 hours

## CCCCCCCCCCCCCCCC(=O)N1CCC[C@H]1C(=O)N1CCC[C@H]1C(=O)NCC(=O)N[C@@H](Cc1ccc(O)cc1)C(=O)O [Compound I-1-Acid] (Palmitoyl-PPGY-OH)
[1]; 1,4-Dioxane, room temperature
  solubility: < 1000 µg/mL
[1]; 1-butanol, room temperature
  solubility: < 1000 µg/mL
[1]; 2-Methyl Tetrahydrofuran, room temperature
  solubility: < 1000 µg/mL
[1]; ACN—H2O (1:1), room temperature
  solubility: < 1000 µg/mL
[1]; Acetone-H2O (1:2), room temperature
  solubility: < 1000 µg/mL
[1]; Acetone, room temperature
  solubility: < 1000 µg/mL
[1]; Acetonitrile, room temperature
  solubility: < 1000 µg/mL
[1]; Cyclohexane, room temperature
  solubility: < 1000 µg/mL
[1]; EtOH—H2O (1:1), room temperature
  solubility: < 1000 µg/mL
[1]; EtOH—H2O (3:1), room temperature
  solubility: < 1000 µg/mL
[1]; Ethanol, room temperature
  solubility: < 1000 µg/mL
[1]; Ethyl acetate, room temperature
  solubility: < 1000 µg/mL
[1]; Heptane, room temperature
  solubility: < 1000 µg/mL
[1]; Isopropyl acetate, room temperature
  solubility: < 1000 µg/mL
[1]; Isopropyl alcohol, room temperature
  solubility: < 1000 µg/mL
[1]; MeOH—H2O (1:1), room temperature
  solubility: < 1000 µg/mL
[1]; MeOH—H2O (3:1), room temperature
  solubility: < 1000 µg/mL
[1]; Methyl ethyl ketone, room temperature
  solubility: < 1000 µg/mL
[1]; Methyl isobutyl ketone, room temperature
  solubility: < 1000 µg/mL
[1]; Methyl t-butyl ether, room temperature
  solubility: < 1000 µg/mL
[1]; N-methyl pyrrolidone, room temperature
  solubility: 1000 to 5000 µg/mL (≈ 1490 to 7450 µM)
[1]; Tetrahydrofuran, room temperature
  solubility: < 1000 µg/mL
[1]; Toluene, room temperature
  solubility: < 1000 µg/mL
[1]; Water, room temperature
  solubility: < 1000 µg/mL
[1]; most organic solvents and water, ambient laboratory temperature
  solubility: < 1000 µg/mL
[2]
  solubility: < 2 µg/mL
[3]
  treating inflammatory bowel diseases, multiple sclerosis, and septicemia: effective

## CCCCCCCCCCCCCCCC(=O)N1CCC[C@H]1C(=O)N1CCC[C@H]1C(=O)NCC(=O)N[C@@H](Cc1ccc(O)cc1)C(=O)[O-].[K+] [Compound I-2 (amorphous)] (Palmitoyl-PPGY-OH)
[4]; 1,4-Dioxane
  solubility: < 1000 µg/mL
[4]; 1-butanol
  solubility: 1000 to 5000 µg/mL
[4]; 2-Methyl Tetrahydrofuran
  solubility: < 1000 µg/mL
[4]; Acetone
  solubility: < 1000 µg/mL
[4]; Acetone: H2O (97:3)
  solubility: < 1000 µg/mL
[4]; Acetonitrile
  solubility: < 1000 µg/mL
[4]; Acetonitrile:H2O (95:5)
  solubility: < 1000 µg/mL
[4]; Cyclohexane
  solubility: < 1000 µg/mL
[4]; DMF
  solubility: 50000 to 100000 µg/mL
[4]; DMSO
  solubility: 50000 to 100000 µg/mL
[4]; Ethanol
  solubility: 50000 to 100000 µg/mL
[4]; Ethanol:H2O (90:10)
  solubility: 25000 to 50000 µg/mL
[4]; Ethanol:H2O (95:5)
  solubility: 25000 to 50000 µg/mL
[4]; Ethyl acetate
  solubility: < 1000 µg/mL
[4]; Heptane
  solubility: < 1000 µg/mL
[4]; Isopropyl acetate
  solubility: < 1000 µg/mL
[4]; Isopropyl alcohol
  solubility: 1000 to 5000 µg/mL
[4]; Methanol
  solubility: > 100000 µg/mL
[4]; Methanol:H2O (90:10)
  solubility: > 100000 µg/mL
[4]; Methanol:H2O (95:5)
  solubility: > 100000 µg/mL
[4]; Methyl ethyl ketone
  solubility: < 1000 µg/mL
[4]; Methyl isobutyl ketone
  solubility: < 1000 µg/mL
[4]; Methyl t-butyl ether
  solubility: < 1000 µg/mL
[4]; N-methyl pyrrolidone
  solubility: 50000 to 100000 µg/mL
[4]; Tetrahydrofuran
  solubility: < 1000 µg/mL
[4]; Tetrahydrofuran:H2O (95:5)
  solubility: 50000 to 100000 µg/mL
[4]; Toluene
  solubility: < 1000 µg/mL
[4]; Water
  solubility: > 100000 µg/mL

## CCCCCCCCCCCCCCCC(=O)N1CCC[C@H]1C(=O)N1CCC[C@H]1C(=O)NCC(=O)N[C@@H](Cc1ccc(O)cc1)C(=O)[O-].[K+] [Compound I-2] (Palmitoyl-PPGY-OH)
[5]
  solubility kinetic: 166000 to 200000 µg/mL

## CCCCCCCCCCCCCCCC(=O)N1CCC[C@H]1C(=O)N1CCC[C@H]1C(=O)NCC(=O)N[C@@H](Cc1ccc(O)cc1)C(=O)[O-].[Na+] [Form A] (Palmitoyl-PPGY-OH)
[6]; [14]
  Final pH: 8.91
[6]; [15]
  Final pH: 8.70
[6]; 25° C., time point 1 hour
  XRPD pattern (wet): A + D
[6]; water, time point 24 hours
  Solubility at 25° C.: 208600 µg/mL

## CCCCCCCCCCCCCCCC(=O)N1CCC[C@H]1C(=O)N1CCC[C@H]1C(=O)NCC(=O)N[C@@H](Cc1ccc(O)cc1)C(=O)[O-].[Na+] [Form E] (Palmitoyl-PPGY-OH)
[6]; [14]
  Final pH: 9.08
[6]; [15]
  Final pH: 8.70
[6]; 25° C., time point 1 hour
  XRPD pattern (wet): A + D
[6]; water, time point 24 hours
  Solubility at 25° C.: 199400 µg/mL

## CCCCCCCCCCCCCCCC(=O)N1CCC[C@H]1C(=O)N1CCC[C@H]1C(=O)NCC(=O)N[C@@H](Cc1ccc(O)cc1)C(=O)[O-].[Na+] [Compound I-1, sodium palmitoyl-L-prolyl-L-prolylglycyl-L-tyrosinate] (Palmitoyl-PPGY-OH)
[6]; water, 25° C.
  solubility kinetic: ~200000 µg/mL
[7]; water with Cremophor RH 40 1% (w/v), HPLC
  solubility at 24 h: 231000 µg/mL
[7]; water with Cremophor RH 40 10% (w/v), HPLC
  solubility at 24 h: 209000 µg/mL
[7]; water with Meglumine 1% (w/v), HPLC
  solubility at 24 h: 190000 µg/mL
[7]; water with Meglumine 10% (w/v)
  solubility at 24 h: > 270000 µg/mL
[7]; water with TWEEN 80 1% (w/v), HPLC
  solubility at 24 h: 215000 µg/mL
[7]; water with TWEEN 80 10% (w/v), HPLC
  solubility at 24 h: 198000 µg/mL
[8]; 200 mg/mL in water with 3%, 4%, or 5% meglumine, stored at 25° C., 13 days
  physical stability of solution: good physical stability
[8]; stored at 5° C., 5 mg/mL solution formulation with meglumine (2-5%)
  physical stability of solution: not physically stable
[8]; 2%, 200 mg/mL
  Appearance: precipitation after (storage time): Precipitation after 2 days
[8]; 2%, 250 mg/mL
  Appearance: precipitation after (storage time): Precipitation after 1 day
[8]; 3%, 200 mg/mL
  Appearance: no precipitation until (storage time): ≥ 3 weeks
[8]; 4%, 200 mg/mL
  Appearance: no precipitation until (storage time): ≥ 3 weeks
[8]; 5%, 200 mg/mL
  Appearance: no precipitation until (storage time): ≥ 3 weeks
[8]; 5%, 250 mg/mL
  Appearance: precipitation after (storage time): Precipitation after 5 days
[8]; 5%, 300 mg/mL
  Appearance: precipitation after (storage time): Precipitation after 3 days
[9]
  stable for (storage time): ≥ 6 months
[10]
  total colitis scores: statistically significant improvement
[11]; water with HPMC E3 5% (w/v)
  solubility: < 250000 µg/mL
[11]; water with HPβCD 5% (w/v)
  solubility: < 250000 µg/mL
[11]; water with Meglumine 2% (w/v)
  solubility: > 250000 µg/mL
[11]; water with Meglumine 5% (w/v)
  solubility: > 250000 µg/mL
[11]; water with Meglumine:Cremophor RH 40 (1:1, w/w) 10% (w/v)
  solubility: > 250000 µg/mL

## CCCCCCCCCCCCCCCC(=O)N1CCC[C@H]1C(=O)N1CCC[C@H]1C(=O)NCC(=O)N[C@@H](Cc1ccc(O)cc1)C(=O)[O-].[K+] [Form A2] (Palmitoyl-PPGY-OH)
[12]
  hygroscopicity (DVS): hygroscopic
  water absorption (DVS isotherm): about 8%
[13]
  crystalline stability on storage: stable
